# Source: patent US9266921B2, “PGC-1α-modulating peptides” (Lipotec, S.A., priority 2011, dated 2016)
# Assays:
# [1] = system: human PGC-1α promoter; assay: Modulation of the human PGC-1α promoter activity (luciferase reporter, Hep G2); assay type: cell-based; conditions: Hep G2 transfected with luciferase under human PGC-1α promoter; peptide 0.5 mg/mL, 24 hours; normalized to carrier = 100%
# Procedure: The modulation capacity of the promoter of human PGC-1α is evaluated by the peptides in the invention in the hepatocellular Hep G2 carcinoma cell line transfected with the luciferase gene under the regulation of the human PGC-1α promoter. The cells are seeded at a density of 20,000 cells/25 cm^2 plate) and incubated for 24 hours in RPMI-1640 complete medium, after which the peptides of the invention are added at 0.5 mg/mL and are incubated for another 24 hours. The RPMI-1640 complete medium (carrier) is used as a negative control. The measurement of the promoter's activity is carried out using the Steady-Glo® Luciferase Assay System (PROMEGA) kit following the manufacturer's instructions. The luminescence values are read on a luminometer […] and the activity of the promoter is determined, which is normalized with regards to the values of the negative control.
# [2] = system: subcutaneous human pre-adipocytes; assay: Accumulation of lipids in subcutaneous human pre-adipocytes (AdipoRed); assay type: cell-based; conditions: peptide 0.1 mg/mL in PDM-2, 10 days, PGM-2 = 0%, PDM-2 = 100%
# Procedure: The levels of accumulation of lipids in subcutaneous human pre-adipocytes were quantified using the AdipoRed™ (Lonza) reagent. 100,000 cells were cultivated per well in PGM™-2 medium at a final volume of 100 μL. After 24 hours, the differentiation from pre-adipocytes to mature adipocytes was induced changing the medium to PDM-2 in the presence of the different peptides at 0.1 mg/mL. After 10 days of treatment with the peptides in differentiation medium, the quantity of intracellular lipids was evaluated using the AdipoRed™ reagent following the manufacturer's instructions measuring the fluorescence of the samples (length of the excitation wave 485 nm and emission 535 nm) after adding the AdipoRed™ reagent. The fluorescence values were corrected with regards to the basal fluorescence and were normalized with regards to the maximum differentiation controls (PDM-2 medium, maximum accumulation of lipids) and minimum differentiation (PGM™-2 medium, minimum accumulation of lipids).
# [3] = system: PGC-1α gene; assay: Transcription of the PGC-1α gene, quantitative real time PCR in differentiating pre-adipocytes; assay type: cell-based; conditions: subcutaneous human adipocytes; peptide 0.1 mg/mL in PDM-2, 10 days; PGM-2 = 0%, PDM-2 = 100%
# Procedure: The expression levels of the gene PGC-1α are measured by PCR in quantitative real time. A cell line of subcutaneous human pre-adipocytes is incubated in PGM™-2 medium at a density of 100,000 cells/well in a volume of 100 μL for 24 hours. Differentiation is induced by changing the medium to PDM-2 in the presence of the peptides Ac-L-Ser-L-Ile-L-Tyr-L-Val-L-Ala-L-Thr-NH2 (Ac-SEQ ID NO. 1-NH2) and Ac-L-Ser-L-Val-L-Val-L-Val-L-Arg-L-Thr-NH2 (Ac-SEQ ID NO. 2-NH2) at 0.1 mg/mL for 10 days, after which the cells were lysed and the RNA is extracted. The PCR is carried out in quantitative real time using the Taqman® Gene Expression Cells-to-CT (Applied Biosystems) kit according to the manufacturer's instructions and with the appropriate probes (TaqMan® Hs01016719_m1 probe for the PGC-1α gene and Taqman® Hs99999901_s1 probe for the eukaryotic ribosomal subunit 18S, the endogenous control of expression) and the values are normalized with regards to the maximum differentiation controls (PDM-2 medium, maximum quantity of PGC-1α mRNA) and minimal differentiation (PGM™-2 medium, minimum quantity of PGC-1α mRNA).
# [4] = system: cellulitis (thigh); assay: Reduction of cellulitis in volunteers, length of the dermo-hypodermic junction line (ultrasound); assay type: in vivo, human; conditions: after 21 days of treatment
# Description: 20 Caucasian volunteers between the age of 25 and 45, with healthy skin and affected by cellulitis levels I-III according to the pinch test applied the composition from Example 15 to one thigh and a placebo composition (the same composition from Example 15 without the peptide) to the other thigh, twice a day for 21 days. The length of the dermo-hypodermic junction line was instrumentally assessed using the Ultrasound Scanner Dermascan C® (Cortex Technology, Denmark) at the beginning of the study and at the end of the study (21 days). The measurement of the length of the dermo-hypodermic junction line is related to the formation of cellulitis and skin irregularities [Quatresooz P et al., “Cellulite histopathology and related mechanobiology”, (2006), Int. J. Cosm. Sci., 28, 207-210]. A reduction in the length of the dermo-hypodermic junction line leads to softer and more regular skin, and as such cellulitis will be less visible. The statistical analysis of the evolution of the parameters measured during the study was carried out using the Student's t-test. The statistical significance threshold was established at 5%.
# [5] = system: breasts; assay: Volume of the breasts in volunteers (Fast Optical In Vivo Topometry); design: species or system human; conditions: treatment up to 56 days
# Description: 22 Caucasian volunteers between the age of 25 and 40, with healthy skin and a bra size of between 36 C to 40 E applied the composition from Example 16 to one breast and a placebo composition (the same composition from Example 16 without the peptide) to the other breast, twice a day for 56 days. The volume of the breasts was instrumentally assessed at the beginning of the study, after 14 days and 28 days of applying the compositions and at the end of the study (56 days) using the Fast Optical In Vivo Topometry Technique, which enables the volume of the breasts to be calculated in mm^3. The volume of the breasts was normalized initially at an arbitrary value of 100,000 mm^3 and the changes in volume of the breasts was measured at the different treatment times in relation to their initial volume. The statistical analysis of the evolution of the parameters measured during the study was carried out using the Student's t-test or the Wilcoxon test. The statistical significance threshold was established at 5%.
Substance,Activity of the PGC-1α promoter (%) [1] [%],% Accumulation of intracellular lipids [2] [%],% relative quantity of PGC-1α mRNA [3] [%],effect on the length of the dermo-hypodermic junction line and cellulitis [4],effect on the volume of the breasts [5]
Ac-L-His-L-Ile-L-Val-L-Val-Gly-L-Thr-NH2 (Ac-HIVVGT-NH2) [Ac-SEQ ID NO. 21-NH2],110,114,–,–,–
Ac-L-His-L-Val-L-Tyr-L-Val-L-Arg-L-Thr-NH2 (Ac-HVYVRT-NH2) [Ac-SEQ ID NO. 12-NH2],114,84,–,–,–
Ac-L-Ser-L-Ile-L-Tyr-L-Val-L-Ala-L-Thr-NH2 (Ac-SIYVAT-NH2) [Ac-SEQ ID NO. 1-NH2],57,33,63,induces a reduction in the length of the dermo-hypodermic junction line,–
Ac-L-Ser-L-Ile-L-Tyr-L-Val-L-Arg-L-Thr-NH2 (Ac-SIYVRT-NH2) [Ac-SEQ ID NO. 11-NH2],151,76,–,–,–
Ac-L-Ser-L-Ile-L-Val-L-Val-Gly-L-Thr-NH2 (Ac-SIVVGT-NH2) [Ac-SEQ ID NO. 22-NH2],63,43,–,–,–
Ac-L-Ser-L-Ile-L-Val-L-Val-Gly-L-Val-NH2 (Ac-SIVVGV-NH2) [Ac-SEQ ID NO. 46-NH2],78,38,–,–,–
Ac-L-Ser-L-Val-L-Tyr-L-Val-L-Ala-L-Thr-NH2 (Ac-SVYVAT-NH2) [Ac-SEQ ID NO. 5-NH2],69,48,–,–,–
Ac-L-Ser-L-Val-L-Tyr-L-Val-L-Arg-L-Thr-NH2 (Ac-SVYVRT-NH2) [Ac-SEQ ID NO. 13-NH2],131,79,–,–,–
Ac-L-Ser-L-Val-L-Val-L-Val-Gly-L-Val-NH2 (Ac-SVVVGV-NH2) [Ac-SEQ ID NO. 48-NH2],75,37,–,–,–
Ac-L-Ser-L-Val-L-Val-L-Val-L-Ala-L-Val-NH2 (Ac-SVVVAV-NH2) [Ac-SEQ ID NO. 32-NH2],82,–,–,–,–
Ac-L-Ser-L-Val-L-Val-L-Val-L-Arg-L-Thr-NH2 (Ac-SVVVRT-NH2) [Ac-SEQ ID NO. 2-NH2],114,128,125,–,induces an increase in the volume of the breasts
Ac-L-Ser-L-Val-L-Val-L-Val-L-Arg-L-Val-NH2 (Ac-SVVVRV-NH2) [Ac-SEQ ID NO. 40-NH2],141,–,–,–,–
